What all share (experiment): growth of human tumour cells (NCI), 48 h
In experiment [1] the test system is RPMI-8226.
Experiment [2] has as its system IGROV-1.
Experiment [3] has as its system K562.
In experiment [4] the test system is NCI-H522.
Experiment [5] concerns SW-620.
Experiment [6] relates to MDA-N.
The test system of experiment [7] is LOX IMVI.
Experiment [8] has as its system MDA-MB-435.
The subject of experiment [9] is SK-MEL-5.
Experiment [10] relates to CAKI-1.
In experiment [11] the test system is UACC-62.
Experiment [12] relates to MOLT-4.
For experiment [13], the system named is KM12.
Experiment [14] deals with CCRF-CEM.
Experiment [15] relates to A549.
Experiment [16] deals with UO-31.
Experiment [17] has as its system 786-0.
The subject of experiment [18] is SF-268.
Experiment [19] concerns OVCAR-3.

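1) Cells in 96-well plates. 2) Compound, 48 h, 5 concentrations. 3) Linear interpolation between surrounding doses. 4) Unreached endpoint = highest concentration. The concentration for 50% growth inhibition is given as GI50.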 The source made the active and inactive calls. Rule as the data show it: active = GI50 up to about 1.1 µM and inactive = higher.

Turning to `CC(=O)OC1C[C@@H](C)C2(CC(c3ccoc3)OC2=O)C2CCC(O)C3(CO3)C12CO` (stereo partly specified), the GI50 in [1], in experiment [2], in [3], in experiment [4], in experiment [5] and in experiment [6] was > 100 µM (inactive) throughout. The GI50 in [7], in experiment [8], in [9], in [10], in [11] and in experiment [12] was > 100 µM (inactive) each time. In addition, the GI50 in experiment [13], in experiment [14], in experiment [15], in experiment [16], in [17] and in experiment [18] was > 100 µM (inactive) in each case. Moreover, the GI50 in experiment [19] was > 100 µM (inactive).

`OCC(Cn1cncn1)(c1ccc(F)cc1F)n1cncn1` (stereo unspecified): the GI50 in experiment [1], in [2], in experiment [3], in experiment [4], in [5] and in experiment [6] was > 100 µM (inactive) each time. Further, the GI50 in experiment [7], in experiment [8], in experiment [9], in experiment [10], in experiment [11] and in [12] was > 100 µM (inactive) in each case. For the same compound, the GI50 in experiment [13] was > 100 µM (inactive); in experiment [14], > 100 µM (inactive); in experiment [15], > 100 µM (inactive); in [16], > 100 µM (inactive); in [17], 66.1 µM (inactive); in experiment [18], > 100 µM (inactive). Besides, the GI50 in experiment [19] was > 100 µM (inactive).

Consider `COc1ccc(C(=O)/C=C/c2ccc(O)c(O)c2F)c(OC)c1`, for which the GI50 is 1.85 µM (inactive) in experiment [1]; 9.98 µM (inactive) in experiment [2]; 2.56 µM (inactive) in experiment [3]; 0.327 µM (active) in experiment [4]; 5.09 µM (inactive) in [5]; 3.23 µM (inactive) in [6]. The GI50 in [7] was 5.61 µM (inactive); in experiment [8] it was 3.58 µM (inactive); in [9] it was 1.61 µM (inactive); in experiment [10] it was 3.24 µM (inactive); in experiment [11], 7.69 µM (inactive); in experiment [12] it was 1.12 µM (inactive). The GI50 was 4.99 µM (inactive) in experiment [13]; 0.44 µM (active) in experiment [14]; 11 µM (inactive) in experiment [15]; 2.56 µM (inactive) in experiment [16]; 4.43 µM (inactive) in [17]; 2.99 µM (inactive) in experiment [18]. Besides, the GI50 in experiment [19] is 1.05 µM (active).

As to `c1ccc2c(c1)NC1(N3CCCCC3)CCCCC21` (stereo unspecified), the GI50 in experiment [1] was 39.1 µM (inactive); in experiment [2], 28.2 µM (inactive); in experiment [3] it was 38.8 µM (inactive); in experiment [4] it was 35.8 µM (inactive); in [5], 41.2 µM (inactive); in experiment [6], 28.1 µM (inactive). Besides, the GI50 was 38.4 µM (inactive) in experiment [7]; 35.2 µM (inactive) in [8]; 56.1 µM (inactive) in experiment [9]; 55.6 µM (inactive) in [10]; 48.9 µM (inactive) in experiment [11]; 25.9 µM (inactive) in experiment [12]. Also, the GI50 is 32.3 µM (inactive) in experiment [13]; 32.4 µM (inactive) in [14]; 30.5 µM (inactive) in experiment [15]; 51.9 µM (inactive) in experiment [16]; 61 µM (inactive) in experiment [17]; 52.5 µM (inactive) in experiment [18]. For the same compound, the GI50 in experiment [19] was 41.7 µM (inactive).
